Measured values published in patent US20230102554A1 (GB002, INC., priority 2019, published 2023).

Experiments:
[1] = molecular target: T1, Human PDGFRβ, cytoplasmic domain (GST-PDGFRβ) (Homo sapiens, UniProt P09619); assay: Human PDGFRβ biochemical inhibition assay (off-chip Mobility Shift Assay)
T1 construct: made in house
In short: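 GST-tagged cytoplasmic domain (aa 557-1106) from baculovirus was incubated 1 h at room temperature with compound, CSKtide, ATP at Km and Mg²⁺ in HEPES buffer, pH 7.5. Phosphorylated and unphosphorylated peptide were separated by off-chip mobility shift, and the product ratio P/(P+S) gave percent inhibition.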

[2] = molecular target: T2, Human PDGFRα, cytoplasmic domain (GST-PDGFRα) (Homo sapiens, UniProt P16234); assay: Human PDGFRα biochemical inhibition assay (off-chip Mobility Shift Assay)
T2 construct: made in house
T2 sequence (P16234 550-1089 T674I): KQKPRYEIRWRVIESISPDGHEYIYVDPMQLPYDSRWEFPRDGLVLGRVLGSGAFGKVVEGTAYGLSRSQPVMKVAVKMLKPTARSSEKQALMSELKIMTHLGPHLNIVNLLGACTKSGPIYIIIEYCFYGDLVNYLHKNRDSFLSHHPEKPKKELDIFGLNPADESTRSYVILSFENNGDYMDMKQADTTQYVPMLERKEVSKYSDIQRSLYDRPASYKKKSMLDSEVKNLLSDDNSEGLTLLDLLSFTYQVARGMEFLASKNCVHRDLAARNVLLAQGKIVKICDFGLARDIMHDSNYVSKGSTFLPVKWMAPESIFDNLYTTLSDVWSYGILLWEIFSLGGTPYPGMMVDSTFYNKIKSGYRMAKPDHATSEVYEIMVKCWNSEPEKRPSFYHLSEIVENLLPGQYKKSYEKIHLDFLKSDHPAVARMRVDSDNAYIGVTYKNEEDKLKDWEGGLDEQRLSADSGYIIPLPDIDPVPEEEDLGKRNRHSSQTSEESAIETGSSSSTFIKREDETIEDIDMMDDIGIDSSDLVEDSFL

T1 sequence (P09619 with tags, fused parts or gaps): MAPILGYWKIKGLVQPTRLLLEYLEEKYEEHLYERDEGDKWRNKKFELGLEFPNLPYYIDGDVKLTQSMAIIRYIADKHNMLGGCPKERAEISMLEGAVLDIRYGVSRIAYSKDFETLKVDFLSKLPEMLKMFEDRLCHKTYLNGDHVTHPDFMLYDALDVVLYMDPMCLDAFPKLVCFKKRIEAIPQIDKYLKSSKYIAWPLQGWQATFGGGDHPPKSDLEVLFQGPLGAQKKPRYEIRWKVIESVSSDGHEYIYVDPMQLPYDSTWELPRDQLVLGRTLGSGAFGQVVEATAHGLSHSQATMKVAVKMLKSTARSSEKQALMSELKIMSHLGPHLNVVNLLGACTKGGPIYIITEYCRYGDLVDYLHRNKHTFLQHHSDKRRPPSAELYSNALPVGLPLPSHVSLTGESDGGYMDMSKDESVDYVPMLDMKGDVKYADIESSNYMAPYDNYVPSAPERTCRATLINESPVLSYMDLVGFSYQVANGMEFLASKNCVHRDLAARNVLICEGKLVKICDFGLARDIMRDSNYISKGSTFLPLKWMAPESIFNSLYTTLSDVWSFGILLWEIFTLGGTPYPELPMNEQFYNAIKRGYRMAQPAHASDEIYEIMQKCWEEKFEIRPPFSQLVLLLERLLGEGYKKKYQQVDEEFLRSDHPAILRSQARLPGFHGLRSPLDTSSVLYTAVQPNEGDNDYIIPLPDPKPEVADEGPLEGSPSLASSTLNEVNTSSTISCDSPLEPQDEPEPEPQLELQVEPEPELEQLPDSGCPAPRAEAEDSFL

SMILES | IC50 [1] [nM] | IC50 [2] [nM]
CCn1cc2ncc(N[C@@H](C)c3cccc(NC(=O)Cc4cncc(F)c4)c3)nc2n1 [Compound 623, (S)-N-(3-(1-((2-ethyl-2H-pyrazolo[3,4-b]pyrazin-6-yl)amino)ethyl)phenyl)-2-(5-fluoropyridin-3-yl)acetamide] | ≥ 1000 | 300 to 1000
CCn1cc2ncc(N[C@@H](C)c3cccc(NC(=O)c4ccc(CN5CC6(COC6)C5)c(F)c4)c3)nc2n1 [Compound 468, (S)-4-((2-oxa-6-azaspiro[3.3]heptan-6-yl)methyl)-N-(3-(1-((2-ethyl-2H-pyrazolo[3,4-b]pyrazin-6-yl)amino)ethyl)phenyl)-3-fluorobenzamide] | ≥ 1000 | 300 to 1000
CCn1cc2ncc(N[C@@H](C)c3cccc(NC(=O)Cc4cc(F)ccc4F)c3)nc2n1 [Compound 640, (S)-2-(2,5-difluorophenyl)-N-(3-(1-((2-ethyl-2H-pyrazolo[3,4-b]pyrazin-6-yl)amino)ethyl)phenyl)acetamide] | 300 to 1000 | < 300
CC(C)COc1ncc(C(=O)Nc2cccc([C@H](C)Nc3cnc4cnn(C)c4n3)c2)cc1Cl [Compound 262, (S)-5-chloro-6-isobutoxy-N-(3-(1-((1-methyl-1H-pyrazolo[3,4-b]pyrazin-6-yl)amino)ethyl)phenyl)nicotinamide] | < 300 | < 300
CCn1cc2ncc(N[C@@H](C)c3cccc(NC(=O)Cc4ccccc4F)c3)nc2n1 [Compound 451, (S)-N-(3-(1-((2-ethyl-2H-pyrazolo[3,4-b]pyrazin-6-yl)amino)ethyl)phenyl)-2-(2-fluorophenyl)acetamide] | 300 to 1000 | < 300
Cc1cncc(C(=O)Nc2cccc([C@H](C)Nc3cnc4cccnc4c3)c2)c1 [Compound 3, (S)—N-(3-(1-((1,5-naphthyridin-3-yl)amino)ethyl)phenyl)-5-methylnicotinamide] | ≥ 1000 | < 300
CCn1cc2ncc(N[C@@H](C)c3cccc(NC(=O)Cc4cc(C)c(F)cn4)c3)nc2n1 [Compound 686, (S)-N-(3-(1-((2-ethyl-2H-pyrazolo[3,4-b]pyrazin-6-yl)amino)ethyl)phenyl)-2-(5-fluoro-4-methylpyridin-2-yl) acetamide] | 300 to 1000 | < 300
CCn1cc2ncc(N[C@@H](C)c3cccc(NC(=O)c4ccc(CN5CC[C@H](F)C5)c(Cl)c4)c3)nc2n1 [Compound 484, 3-chloro-N-(3-((S)-1-((2-ethyl-2H-pyrazolo[3,4-b]pyrazin-6-yl)amino)ethyl)phenyl)-4-(((S)-3-fluoropyrrolidin-1-yl)methyl) benzamide] | < 300 | < 300
CCn1cc2ncc(N[C@@H](C)c3cc(NC(=O)c4cnn(C5CC5)c4)ccc3F)nc2n1 [Compound 312, (S)-1-cyclopropyl-N-(3-(1-((2-ethyl-2H-pyrazolo[3,4-b]pyrazin-6-yl)amino)ethyl)-4-fluorophenyl)-1H-pyrazole-4-carboxamide] | < 300 | < 300
CCn1cc2ncc(N[C@@H](C)c3cccc(NC(=O)c4ccc(OC(F)(F)F)c(C)c4)c3)nc2n1 [Compound 452, (S)-N-(3-(1-((2-ethyl-2H-pyrazolo[3,4-b]pyrazin-6-yl)amino)ethyl)phenyl)-3-methyl-4-(trifluoromethoxy)benzamide] | < 300 | < 300
Cc1cncc(C(=O)Nc2cccc([C@H](C)Nc3cnc4[nH]cc(-c5cnn(C)c5)c4n3)c2)c1 [Compound 563, (S)-5-methyl-N-(3-(1-((7-(1-methyl-H-pyrazol-4-yl)-5H-pyrrolo[2,3-b]pyrazin-2-yl)amino)ethyl)phenyl) nicotinamide] | < 300 | < 300
CCn1cc2ncc(N[C@@H](C)c3cccc(NC(=O)c4cnc(N5CCN(C)CC5)c(C)c4)c3)nc2n1 [Compound 396, (S)-N-(3-(1-((2-ethyl-2H-pyrazolo[3,4-b]pyrazin-6-yl)amino)ethyl)phenyl)-5-methyl-6-(4-methylpiperazin-1-yl) nicotinamide] | < 300 | < 300
CCn1cc2ncc(N[C@@H](C)c3cccc(NC(=O)c4cnc(C#N)c(C)c4)c3)nc2n1 [Compound 289, (S)-6-cyano-N-(3-(1-((2-ethyl-2H-pyrazolo[3,4-b]pyrazin-6-yl)amino)ethyl)phenyl)-5-methylnicotinamide] | 300 to 1000 | < 300
Cc1cncc(C(=O)Nc2cccc([C@H](C)Nc3cnc4[nH]ncc4n3)c2)c1 [Compound 529, (S)-N-(3-(1-((1H-pyrazolo[3,4-b]pyrazin-5-yl)amino)ethyl)phenyl)-5-methylnicotinamide] | < 300 | < 300
C[C@H](Nc1cnc2[nH]cc(-c3cnn(C)c3)c2n1)c1cccc(NC(=O)c2ccc(N3CCCC3)nc2)c1 [Compound 585, (S)-N-(3-(1-((7-(1-methyl-1H-pyrazol-4-yl)-5H-pyrrolo[2,3-b]pyrazin-2-yl)amino)ethyl)phenyl)-6-(pyrrolidin-1-yl) nicotinamide] | < 300 | < 300
CCn1cc2ncc(N[C@@H](C)c3cccc(NC(=O)Cc4ccc(F)cc4)c3)nc2n1 [Compound 638, (S)-N-(3-(1-((2-ethyl-2H-pyrazolo[3,4-b]pyrazin-6-yl)amino)ethyl)phenyl)-2-(4-fluorophenyl)acetamide] | < 300 | < 300

The remaining lines, values ahead:

IC50 [1] [nM] | IC50 [2] [nM] | SMILES
< 300 | < 300 | C[C@H](Nc1cnc2cnn(C)c2n1)c1cccc(NC(=O)c2ccc(Cl)s2)c1 [Compound 135, (S)-5-chloro-N-(3-(1-((1-methyl-1H-pyrazolo[3,4-b]pyrazin-6-yl)amino)ethyl)phenyl)thiophene-2-carboxamide]
< 300 | < 300 | CCn1cc2ncc(N[C@@H](C)c3cc(NC(=O)Cc4cncc(C(F)(F)F)c4)ccc3C)nc2n1 [Compound 692, (S)-N-(3-(1-((2-ethyl-2H-pyrazolo[3,4-b]pyrazin-6-yl)amino)ethyl)-4-methylphenyl)-2-(5-(trifluoromethyl)pyridin-3-yl)acetamide]
< 300 | < 300 | Cc1cc(C(=O)Nc2cccc([C@H](C)Nc3cnc4cnn(C)c4n3)c2)cnc1NC(C)C [Compound 198, (S)-6-(isopropylamino)-5-methyl-N-(3-(1-((1-methyl-1H-pyrazolo[3,4-b]pyrazin-6-yl)amino)ethyl)phenyl) nicotinamide]
< 300 | < 300 | COc1ccc(C(=O)Nc2cccc([C@H](C)Nc3cnc4cnn(C)c4n3)c2)cc1C [Compound 210, (S)-4-methoxy-3-methyl-N-(3-(1-((1-methyl-1H-pyrazolo[3,4-b]pyrazin-6-yl)amino)ethyl)phenyl)benzamide]
< 300 | < 300 | CCn1cc2ncc(N[C@@H](C)c3cccc(NC(=O)c4ccc(N5CCCC5)c(F)c4)c3)nc2n1 [Compound 441, (S)-N-(3-(1-((2-ethyl-2H-pyrazolo[3,4-b]pyrazin-6-yl)amino)ethyl)phenyl)-3-fluoro-4-(pyrrolidin-1-yl)benzamide]
< 300 | < 300 | CCn1cc2ncc(N[C@@H](C)c3cc(NC(=O)c4cnc(C)s4)ccc3F)nc2n1 [Compound 307, (S)-N-(3-(1-((2-ethyl-2H-pyrazolo[3,4-b]pyrazin-6-yl)amino)ethyl)-4-fluorophenyl)-2-methylthiazole-5-carboxamide]
< 300 | < 300 | CSc1ccc(C(=O)Nc2cccc([C@H](C)Nc3cnc4cnn(C)c4n3)c2)cn1 [Compound 218, (S)-N-(3-(1-((1-methyl-1H-pyrazolo[3,4-b]pyrazin-6-yl)amino)ethyl)phenyl)-6-(methylthio)nicotinamide]
< 300 | < 300 | CCn1cc2ncc(N[C@@H](C)c3cccc(NC(=O)c4ccc(N5CCCC5)c(Cl)c4)c3)nc2n1 [Compound 389, (S)-3-chloro-N-(3-(1-((2-ethyl-2H-pyrazolo[3,4-b]pyrazin-6-yl)amino)ethyl)phenyl)-4-(pyrrolidin-1-yl)benzamide]
< 300 | < 300 | Cc1ncc(C(=O)Nc2cccc([C@H](C)Nc3cnc4[nH]cc(-c5cnn(C)c5)c4n3)c2)s1 [Compound 583, (S)-2-methyl-N-(3-(1-((7-(1-methyl-1H-pyrazol-4-yl)-5H-pyrrolo[2,3-b]pyrazin-2-yl)amino)ethyl)phenyl)thiazole-5-carboxamide]
< 300 | < 300 | C[C@H](Nc1cnc2cnn(C)c2n1)c1cccc(NC(=O)c2cc(C(C)(C)C)n(C)n2)c1 [Compound 166, (S)-5-(tert-butyl)-1-methyl-N-(3-(1-((1-methyl-1H-pyrazolo[3,4-b]pyrazin-6-yl)amino)ethyl)phenyl)-1H-pyrazole-3-carboxamide]
< 300 | < 300 | CCn1cc2ncc(N[C@@H](C)c3cccc(NC(=O)Nc4cnc(C5CC5)c(C)c4)c3)nc2n1 [Compound 734, (S)-1-(6-cyclopropyl-5-methylpyridin-3-yl)-3-(3-(1-((2-ethyl-2H-pyrazolo[3,4-b]pyrazin-6-yl)amino)ethyl)phenyl)urea]
< 300 | < 300 | CCn1cc2ncc(N[C@@H](C)c3cc(NC(=O)Cc4cccc(C(F)(F)F)c4)ccc3F)nc2n1 [Compound 636, (S)-N-(3-(1-((2-ethyl-2H-pyrazolo[3,4-b]pyrazin-6-yl)amino)ethyl)-4-fluorophenyl)-2-(3-(trifluoromethyl)phenyl) acetamide]
< 300 | < 300 | CCn1cc2ncc(N[C@@H](C)c3cccc(NC(=O)c4ccc(CN5CC(F)C5)c(C)c4)c3)nc2n1 [Compound 497, (S)-N-(3-(1-((2-ethyl-2H-pyrazolo[3,4-b]pyrazin-6-yl)amino)ethyl)phenyl)-4-((3-fluoroazetidin-1-yl)methyl)-3-methylbenzamide]
